Laboratory results as given in PubChem BioAssay (NCI).
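48-hour exposure; five concentrations; linearly interpolated endpoints. TGI denotes the concentration required for complete inhibition of growth.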

What was measured:
Assay in all cases: NCI anticancer screen, dose series, 48 h
OVCAR-4 ovarian = tested on: OVCAR-4 ovarian
NCI-H23 lung = tested on: NCI-H23 lung
IGROV1 ovarian = tested on: IGROV1 ovarian
SN12C renal = tested on: SN12C renal
MALME-3M melanoma = tested on: MALME-3M melanoma
OVCAR-8 ovarian = tested on: OVCAR-8 ovarian
SK-MEL-2 melanoma = tested on: SK-MEL-2 melanoma
K-562 leukemia = tested on: K-562 leukemia
TK-10 renal = tested on: TK-10 renal
MDA-N = tested on: MDA-N

SMILES	TGI (OVCAR-4 ovarian)	TGI (NCI-H23 lung)	TGI (IGROV1 ovarian)	TGI (SN12C renal)	TGI (MALME-3M melanoma)	TGI (OVCAR-8 ovarian)	TGI (SK-MEL-2 melanoma)	TGI (K-562 leukemia)	TGI (TK-10 renal)	TGI (MDA-N)
COc1cc(/C=C/C(=O)O)ccc1C(=O)O/C=C/c1ccccc1	> 100 µM	> 100 µM	> 100 µM	> 100 µM	> 100 µM	> 100 µM	> 100 µM	> 100 µM		
CCN(CC)CCOC(NC(C)=O)(c1ccccc1)c1ccccc1	> 100 µM	> 100 µM	> 100 µM	> 100 µM	> 100 µM	> 100 µM			> 100 µM	
C[n+]1c(-c2ccccc2)cc2/c(=C\c3ccc([N+](=O)[O-])cc3)c3ccccc3n21	> 100 µM	13.6 µM	9.53 µM	> 33.6 µM		> 26 µM	10.9 µM	> 100 µM	> 100 µM	21.8 µM
CN(C)c1nc(=NCc2ccncc2)ss1	39.2 µM	38.2 µM	> 100 µM	36 µM	> 31.6 µM	34.6 µM		47.7 µM	> 100 µM	> 31.6 µM
C=C(Cl)/C(=C\Cl)CCC(Br)C(C)C (centres undefined)	95.5 µM	> 100 µM	> 100 µM	> 100 µM			> 100 µM	> 100 µM	> 100 µM	> 100 µM
COc1cccc(-c2cc(=O)c3c(C)cc(C)nc3[nH]2)c1	> 100 µM	> 38.4 µM	> 67.4 µM	> 100 µM	> 100 µM	> 100 µM	97.6 µM	1.41 µM	> 100 µM	
OC[C@@H](O)[C@H]1NC[C@@H](O)[C@H]1O	> 100 µM	> 100 µM	> 100 µM	> 100 µM	> 100 µM	> 100 µM			> 100 µM	> 100 µM
COc1ccc(N2C(=O)c3c4c(c5c([nH]c6ncccc65)c3C2=O)CCC(C(C)(C)C)C4)cc1 (centres undefined)	> 100 µM	> 100 µM	> 100 µM	> 100 µM		> 100 µM			> 100 µM	> 100 µM
CC(=O)N/N=C1/NN(C(C)=O)C2(S1)C(=O)Nc1ccc(Br)cc12 (centres undefined)	> 100 µM	> 100 µM	> 100 µM	> 100 µM	> 100 µM	> 100 µM	> 100 µM	> 100 µM	> 100 µM	
CC(=O)OC[C@]1(C(=O)C(O)c2ccoc2)[C@H](C)CC[C@@]23COC(=O)C2=CCC[C@@H]31 (some centres undefined)	> 10 µM	> 10 µM	> 10 µM	> 10 µM		> 10 µM	> 10 µM		> 10 µM	> 10 µM
Cc1ccc(S(=O)(=O)Oc2cc(N)c3c(n2)CCC3)cc1	> 100 µM	> 100 µM	> 100 µM	> 100 µM		> 100 µM	> 100 µM	> 100 µM	> 100 µM	> 100 µM
COc1ccc(N[C@H](CSc2ccc(C)cc2)c2ccc(F)cc2)cc1	> 100 µM	> 100 µM	> 100 µM	> 100 µM		> 100 µM	> 100 µM	> 100 µM	> 100 µM	> 100 µM
Cc1cc(-c2nc3c(O)cccc3s2)ccc1N		89.4 µM	53.8 µM	90.7 µM		54.4 µM	52.9 µM	> 100 µM	74.8 µM	76.9 µM
NC(=O)C(=O)N/N=C1/c2ccccc2CC1C1(O)C(=O)Nc2c(Cl)cc(Cl)cc21 (centres undefined)	> 100 µM	> 100 µM	> 100 µM	> 100 µM	> 100 µM	> 100 µM	> 100 µM	> 100 µM	> 100 µM	
CCC12C[N+]3([O-])CCc4c([nH]c5ccccc45)C(C(=O)OC)(c4cc5c(cc4OC)N(C)C4C(O)(C(=O)OC)C(OC(C)=O)C6(CC)C=CCN7CCC54C76)CC(C3)C1O2 (centres undefined)	45.9 µM	8.49 µM	14.9 µM	24.5 µM	22.9 µM	54.1 µM	0.649 µM	6.28 µM	26.8 µM	
COc1cc(/C=C2\C(=O)N(C(=O)Cc3ccccc3)N=C2C)ccc1O	> 100 µM	> 100 µM		> 100 µM	> 100 µM	> 100 µM	> 100 µM	> 100 µM	> 100 µM	
CCNC(=O)Nc1ccccn1	> 100 µM	> 100 µM	> 100 µM	> 100 µM	> 100 µM	> 100 µM		> 100 µM	> 100 µM	> 100 µM
C/C(=C\c1ccccc1)C(=O)CCN1CCOCC1	32.9 µM	32 µM	> 61.9 µM	32.8 µM	33 µM	41.4 µM	> 59.9 µM	> 69.7 µM		
COC(=O)c1c(C)cccc1/C=C1/Cc2c(C)cccc2C1=O	> 100 µM	> 100 µM	> 100 µM	> 100 µM	> 100 µM	> 100 µM			> 100 µM	> 100 µM
